Laboratory results from ChEMBL document CHEMBL5131487, “Synthesis and biological evaluation of tetrahydroisoquinoline-derived antibacterial compounds” (Bioorg Med Chem, 2022).
The source made the active and inactive calls. The rule behind the calls is not given here.

Experiments:
Escherichia coli = assay: Antibacterial activity against Escherichia coli MG1655 assessed as inhibition of bacterial growth incubated for 20 hrs by CLSI broth microdilution method; type: functional
Staphylococcus aureus [1] = assay: Antibacterial activity against Staphylococcus aureus ATCC 25923 assessed as inhibition of bacterial growth incubated for 20 hrs by CLSI broth microdilution method; type: functional
Bacillus subtilis [2] = assay: Antibacterial activity against Bacillus subtilis 168 assessed as inhibition of bacterial growth incubated for 20 hrs by CLSI broth microdilution method; type: functional
3T3-L1 [3] = assay: Cytotoxicity against mouse 3T3-L1 cells assessed as reduction in cell viability at 25 ug/ml measured after 24 to 72 hrs by MTT assay; type: toxicity, cell-based; settings: time 24-72 hrs, dose 25 µg/ml
Bacillus subtilis [4] = assay: Bactericidal activity against Bacillus subtilis 168 at 4 ug/ml incubated for 20 hrs in CAMHB followed by culturing onto CAMHA for 48 hrs by colony counting analysis; type: functional, organism-based; settings: dose 4.0 µg/ml, time 68.0 hrs
Staphylococcus aureus [5] = assay: Bactericidal activity against Staphylococcus aureus ATCC 25923 at 4 ug/ml incubated for 20 hrs in CAMHB followed by culturing onto CAMHA for 48 hrs by colony counting analysis; type: functional, organism-based; settings: dose 4.0 µg/ml, time 68.0 hrs
[6] = Cytotoxicity against mouse 3T3-L1 cells assessed as cell viability at 25 ug/ml measured after 24 to 72 hrs by MTT assay relative to control; type: toxicity, cell-based; settings: at 25 µg/mL, time 24-72 hrs, read-out: Activity
Vero = assay: (§1) Cytotoxicity against African green monkey Vero cells assessed as inhibition of cell growth at 50 ug/ml; type: toxicity, cell-based; settings: chlorocebus sabaeus, vero; dose 50 µg/ml
3T3-L1 [7] = assay: Cytotoxicity against mouse 3T3-L1 cells assessed as reduction in cell viability at 12.5 ug/ml measured after 24 hrs by MTT assay; type: toxicity, cell-based; settings: 3t3-l1, 24 h, dose 12.5 µg/ml
[8] = Induction of phenotypic changes in Bacillus subtilis 168 assessed as abundance of ghost cells at 4XMIC measured after 1 hr by phase contrast microscopic analysis; type: functional
Bacillus subtilis [9] = assay: Induction of phenotypic changes in Bacillus subtilis 168 assessed as bacterial population with localized swelling at 4XMIC measured after 1 hr by phase contrast microscopic analysis; type: functional
Bacillus subtilis [10] = assay: Induction of phenotypic changes in Bacillus subtilis 168 assessed as disruption of peptidoglycan synthesis by measuring inconsistency in NADA stain distribution throughout the cell at 4XMIC measured after 60 mins by NADA staining based fluorescent microscopy; type: functional
Acinetobacter baumannii = assay: Antibacterial activity against Acinetobacter baumannii assessed as inhibition of bacterial growth incubated for 20 hrs by CLSI broth microdilution method; type: functional
[11] = as §1; type: toxicity, cell-based; settings: chlorocebus sabaeus, Vero cells, at 50 µg/mL
[12] = test system: Mycobacterium tuberculosis; assay: Antibacterial activity against Mycobacterium tuberculosis H37Rv assessed as inhibition of bacterial growth at 20 uM; type: functional
Acinetobacter baylyi = assay: Antibacterial activity against Acinetobacter baylyi assessed as inhibition of bacterial growth incubated for 20 hrs by CLSI broth microdilution method; type: functional
Streptococcus pneumoniae = assay: Antibacterial activity against Streptococcus pneumoniae assessed as inhibition of bacterial growth incubated for 20 hrs by CLSI broth microdilution method; type: functional
Bacillus subtilis [13] = assay: Induction of phenotypic changes in Bacillus subtilis 168 assessed as bacterial population with bulging phenotype at 4XMIC measured after 1 hr by phase contrast microscopic analysis; type: functional
[14] = test system: Mycobacterium tuberculosis; assay: Antibacterial activity against Mycobacterium tuberculosis H37Rv assessed as inhibition of bacterial growth; type: functional
Staphylococcus aureus [15] = assay: Antibacterial activity against Staphylococcus aureus ATCC 25923 assessed as inhibition of bacterial growth measured after repeated 30 day serial passage treatment by broth microdilution method; type: functional, organism-based
Enterococcus faecium = assay: Antibacterial activity against Enterococcus faecium assessed as inhibition of bacterial growth incubated for 20 hrs by CLSI broth microdilution method; type: functional

| Structure (SMILES) | MIC95 (Escherichia coli) [µg/mL] | MIC95 (Staphylococcus aureus [1]) [µg/mL] | MIC95 (Bacillus subtilis [2]) [µg/mL] | other results |
| --- | --- | --- | --- | --- |
| COc1cc2c(cc1OC)C[N+](Cc1cn(-c3ccc(Cl)nc3Cl)nn1)(Cc1cn(-c3ccc(Cl)nc3Cl)nn1)CC2 | > 128 | > 128 | > 128 | – |
| COc1cc2c(cc1OC)C[N+](Cc1cn(-c3ccc(Cl)cc3)nn1)(Cc1cn(-c3ccc(Cl)cc3)nn1)CC2 | > 128 | 32 | 32 | – |
| COc1cc2c(cc1OC)C[N+](Cc1cn(-c3ccc(C(=O)N(C)C)cc3)nn1)(Cc1cn(-c3ccc(C(=O)N(C)C)cc3)nn1)CC2 | > 128 | > 128 | > 128 | – |
| COc1cc2c(cc1OC)C[N+](Cc1cn(-c3ccoc3)nn1)(Cc1cn(-c3ccoc3)nn1)CC2 | > 128 | > 128 | > 128 | – |
| COc1cc2c(cc1OC)C[N+](Cc1cn(-c3ccc([N+](=O)[O-])cc3)nn1)(Cc1cn(-c3ccc([N+](=O)[O-])cc3)nn1)CC2 | > 128 | > 128 | > 128 | – |
| COc1cc2c(cc1OC)C[N+](Cc1cn(-c3ccc(OCc4ccccc4)cc3F)nn1)(Cc1cn(-c3ccc(OCc4ccccc4)cc3F)nn1)CC2 | > 128 | 4 | 4 | Activity (3T3-L1 [3]): Toxic; Activity (Bacillus subtilis [4]): Active; Activity (Staphylococcus aureus [5]): Active |
| COc1cc2c(cc1OC)C[N+](Cc1cn(-c3ccc(OCc4ccccc4)c(F)c3)nn1)(Cc1cn(-c3ccc(OCc4ccccc4)c(F)c3)nn1)CC2 | > 128 | 4 | 4 | viability at 25 ug/ml [6]: > 85%; Activity (Vero): Non-Toxic; Activity (Bacillus subtilis [4]): Active; Activity (Staphylococcus aureus [5]): Active |
| COc1cc2c(cc1OC)C[N+](Cc1cn(-c3ccc4ccccc4c3)nn1)(Cc1cn(-c3ccc4ccccc4c3)nn1)CC2 | > 128 | 32 | 32 | – |
| COc1ccc(-n2cc(C[N+]3(Cc4cn(-c5ccc(OC)cc5)nn4)CCc4cc(OC)c(OC)cc4C3)nn2)cc1 | > 128 | > 128 | > 128 | – |
| COc1cc2c(cc1OC)C[N+](Cc1cn(-c3ccc(C(F)(F)F)cc3C(F)(F)F)nn1)(Cc1cn(-c3ccc(C(F)(F)F)cc3C(F)(F)F)nn1)CC2 | > 128 | 32 | 32 | – |
| COc1cc2c(cc1OC)C[N+](Cc1cn(-c3ccc(-c4ccccc4)cc3)nn1)(Cc1cn(-c3ccc(-c4ccccc4)cc3)nn1)CC2 | > 128 | 32 | – | – |
| COc1cc2c(cc1OC)C(Cc1ccccc1)[N+](Cc1cn(-c3ccc(C(C)(C)C)cc3)nn1)(Cc1cn(-c3ccc(C(C)(C)C)cc3)nn1)CC2 (centres undefined) | > 128 | 2 | – | Activity (3T3-L1 [7]): Toxic |
| COc1cccc(CC2c3cc(OC)c(OC)cc3CC[N+]2(Cc2cn(-c3ccc(C(C)(C)C)cc3)nn2)Cc2cn(-c3ccc(C(C)(C)C)cc3)nn2)c1 (centres undefined) | > 128 | 4 | – | Activity (3T3-L1 [7]): Toxic |
| COc1cc2c(cc1OC)C[N+](Cc1cn(-c3cc(C(F)(F)F)cc(C(F)(F)F)c3)nn1)(Cc1cn(-c3cc(C(F)(F)F)cc(C(F)(F)F)c3)nn1)CC2 | > 128 | 8 | > 128 | – |
| COc1cc2c(cc1OC)C[N+](Cc1cn(-c3ccc(COc4ccccc4)cc3)nn1)(Cc1cn(-c3ccc(COc4ccccc4)cc3)nn1)CC2 | > 128 | 32 | 32 | – |
| COc1cc2c(cc1OC)C[N+](Cc1cn(-c3ccc(C(C)(C)C)cc3)nn1)(Cc1cn(-c3ccc(C(C)(C)C)cc3)nn1)CC2 | > 128 | 4 | 4 | Activity (3T3-L1 [3]): Toxic; Activity [8]: >50%; Activity (Bacillus subtilis [9]): 20%; Activity (Bacillus subtilis [10]): Active; MIC95 (Acinetobacter baumannii): 128 µg/mL; inhibition at 50 ug/ml [11]: 89%; Activity (Bacillus subtilis [4]): Active; inhibition at 20 µM [12]: > 90%; MIC95 (Acinetobacter baylyi): 128 µg/mL; MIC95 (Streptococcus pneumoniae): 8 µg/mL; Activity (Staphylococcus aureus [5]): Active; Activity (Bacillus subtilis [13]): 10%; MIC [14]: 6 µg/mL; Activity (Staphylococcus aureus [15]): Active; MIC95 (Enterococcus faecium): 8 µg/mL |
| COc1cc2c(cc1OC)C[N+](Cc1cn(-c3ccc(C#N)cc3)nn1)(Cc1cn(-c3ccc(C#N)cc3)nn1)CC2 | > 128 | > 128 | > 128 | – |
| COc1cc2c(cc1OC)C[N+](Cc1cn(-c3ccccc3)nn1)(Cc1cn(-c3ccccc3)nn1)CC2 | > 128 | > 128 | – | – |
